In paper PMC6478823, “A suite of phenotypic assays to ensure pipeline diversity when prioritizing drug-like Cryptosporidium growth inhibitors” (Nature Communications, 2019):
Read-outs that look alike come from different tables or passages of the source.

How the values were obtained:
C. parvum [1] = experiment: Egress, motility, reinvasion assay (PV ratio); settings: compound at EC90; for Egress and Reinvasion Assay: Mean PV ratios (19.5h:6h), Average: average of replicates; for Egress and Reinvasion Assay: Mean PV ratios (19.5h:6h), Replicate 1a: single replicate 1; for Egress and Reinvasion Assay: Mean PV ratios (19.5h:6h), Replicate 2a: single replicate 2; for Egress and Reinvasion Assay: Mean PV ratios (19.5h:6h), Replicate 3a: single replicate 3; for Egress and Reinvasion Assay: Mean PV ratios (19.5h:6h), Replicate 4a: single replicate 4
Protocol: For quantification of parasitophorous vacuoles over time, HCT-8 cells were grown to greater than 90% confluence in 384-well plates and infected with 11,000 oocysts after triggering excystation.

C. parvum [2] = type: cell-based, Cryptosporidium parvum; settings: compound at EC90; for Invasion Assay: Mean % Inhibition (parasites), Average: average of replicates; for Invasion Assay: Mean % Inhibition (parasites), Replicate 1a: single biological replicate 1; for Invasion Assay: Mean % Inhibition (parasites), Replicate 2a: single biological replicate 2; for Sporozoite invasion: yes/no grouping by phenotypic assay result
Protocol: The first step in infection is host cell invasion, which involves a complex process encompassing oocyst excystation, parasite motility, adhesion, and parasitophorous vacuole formation (Fig. 2a). Our strategy to assay for compounds affecting invasion was simply to expose C. parvum to compounds immediately after triggering excystation and throughout the invasion process, and then enumerate the parasite vacuoles after 3 h, prior to allowing the parasites to replicate (summarized in Fig. 2b).
Fig. 2 Invasion Assay. a Overview of life cycle stage investigated during the invasion assay. Representative TEM images of a C. parvum oocyst and HCT-8 cell shortly after infection (Scale bar = 500 nm). b Schematic of experimental design. […] Each point represents the mean and SD of at least two biological replicates with four technical replicates per experiment.
C. parvum invasion inhibition was measured by modifying the 48 h growth inhibition assay described above. […] In parallel, Iowa strain oocysts were excysted. […] Assay plates were incubated at 37 °C and 5% CO2 for 3 h.

C. parvum [3] = experiment: 48 h Cryptosporidium growth inhibition assay; type: cell-based, Cryptosporidium parvum; settings: compound added 3 h post-infection, read at 48 h
Description: As a first step in developing specific Cryptosporidium mode of action assays, we conducted a series of light microscopy time-lapse and transmission electron microscopy (TEM) time course experiments in order to precisely define C. parvum development within the HCT-8 cell culture system. […] This synchronicity was exploited by modifying a previously developed high-content microscopy assay. These assay modifications enabled the evaluation of several key events within the life cycle: host cell invasion, intracellular replication, host cell egress and establishment of new parasitophorous vacuoles, and sexual differentiation. […] Since the methods all used automated liquid handling, imaging, and image analysis, the assay methods all incorporated nuclear staining to monitor host cell numbers and enable recognition of HCT-8 cell monolayer damage, for example as an artifact from a malfunctioning plate washer or from unanticipated cytotoxicity of the compounds.
Human ileocecal adenocarcinoma (HCT-8) cells were purchased from ATCC (catalog# CCL-244) and cultured in ATCC modified RPMI-1640 medium (Gibco, catalog# A10491–01), supplemented with 10% heat-inactivated fetal bovine serum (Sigma-Aldrich, catalog# 12306C) and 120 U/mL penicillin and 120 μg/mL streptomycin (Gibco, catalog# 15140-122) (culture media). […] For all experiments, HCT-8 cells between passages 9 and 39 were used. C. parvum (Iowa isolate) oocysts were purchased from Bunchgrass Farm (Deary, ID), stored at 4 °C and used within 5 months of collection from an infected calf. To induce excystation, oocysts were first treated with 10 mM hydrochloric acid for 10 min at 37 °C, spun at 14,000×g for 4.5 min at room temperature, treated with 2 mM sodium taurocholate for 10 min at 16 °C, spun as before, and resuspended in culture media for infection.
A modification of a previously reported immunofluorescence assay was used to determine the EC50 and EC90 of compounds[13]. HCT-8 cells were grown to ≥ 90% confluence in 384-well plates (Corning, catalog# 353962) and infected with 5500 oocysts per well after they were induced for excystation as described above. Different concentrations of compounds were added 3 h post-infection and plates were incubated for another 45 h in a 5% CO2 incubator at 37 °C. Wells were then washed 3 times with PBS containing 111 mM D-galactose (PBS-D-gal), fixed with 4% paraformaldehyde (PFA) in PBS for 15 min at room temperature, permeabilized with 0.25% Triton X-100 for 10 min at 37 °C, washed 3 times with PBS with 0.1% Tween 20, and blocked with 4% bovine serum albumin (BSA) in PBS for 2 h at 37 °C or 4 °C overnight. Parasitophorous vacuoles were stained with 1.33 µg/mL of fluorescein-labeled Vicia villosa lectin (Vector Laboratories, catalog# FL-1231) diluted in 1% BSA in PBS with 0.1% Tween 20 for 1 h at 37 °C, followed by addition of Hoechst 33258 (AnaSpec, catalog# AS-83219) at 0.09 mM diluted in water for another 15 min at 37 °C. Wells were then washed 5 times with PBS containing 0.1% Tween 20. A Nikon Eclipse Ti2000 epifluorescence microscope with an automated stage was programmed using NIS-Elements Advanced Research software (Nikon, USA) to focus on the center of each well and take a 3 × 3 or 6 × 6 composite image using an EXi blue fluorescence microscopy camera (QImaging, Canada) with a 20 × objective (NA = 0.45). Nuclei and parasite images were separately exported as.tif files and analyzed using macros developed on the ImageJ platform (National Institutes of Health)[13].

[4] = Cryptosporidium parvum, HCT-8, read-out: Regular 3 to 48 h assay in vitro EC90, C. parvum in HCT-8 cells
[5] = read-out: Regular 3 to 48 h assay in vitro EC90, C. parvum in HCT-8 cells

SMILES	Egress and Reinvasion Assay: Mean PV ratios (19.5h:6h), Average (C. parvum [1])	Egress and Reinvasion Assay: Mean PV ratios (19.5h:6h), Replicate 1a (C. parvum [1])	Egress and Reinvasion Assay: Mean PV ratios (19.5h:6h), Replicate 2a (C. parvum [1])	Egress and Reinvasion Assay: Mean PV ratios (19.5h:6h), Replicate 3a (C. parvum [1])	Egress and Reinvasion Assay: Mean PV ratios (19.5h:6h), Replicate 4a (C. parvum [1])	Invasion Assay: Mean % Inhibition (parasites), Average (C. parvum [2]) [%]	effect on host cell invasion / parasitophorous vacuole formation (C. parvum [2]; result in words)	Invasion Assay: Mean % Inhibition (parasites), Replicate 1a (C. parvum [2]) [%]	Invasion Assay: Mean % Inhibition (parasites), Replicate 2a (C. parvum [2]) [%]	EC90 (C. parvum [3]; [4]) [µM]	Sporozoite invasion (C. parvum [2])	EC90 (C. parvum [3]; [5]) [µM]	Egress and Reinvasion Assay: Mean PV ratios (19.5h:6h), Replicate 5a (C. parvum [1]; single replicate 5)	Invasion Assay: Mean % Inhibition (parasites), Replicate 3a (C. parvum [2]; single biological replicate 3) [%]
CC(=O)Oc1ccccc1C(=O)Nc1ncc([N+](=O)[O-])s1 [Nitazoxanide]	1.40	1.33	1.77	1.37	1.12	13.83	no significant effect on parasitophorous vacuole formation	11	17	3.52	–	–	–	–
C[C@H]1CCC[C@H](C[C@H]2Cc3cc(O)cc(O)c3C(=O)O2)O1 [Cladosporin]	0.68	0.52	0.83	–	–	-6.64	–	5.41	-19	0.49	–	–	–	–
COc1ccc(Nc2nc(NCc3ccccc3Cl)c3ccccc3n2)cc1Cl [B-13]	1.42	1.37	1.48	–	–	82.51	–	92	73	–	yes	1.39	–	–
CCOc1ccc2cc(-c3nn(CC4CCN(C)CC4)c4ncnc(N)c34)ccc2c1 [BKI-1294]	1.49	1.81	1.18	–	–	-6.64	–	12	-26	–	–	22.4	–	–
COc1ccc(NC(=O)N2CCCCN3C(CN(C)C)C(c4ccc(C#Cc5ccccc5)cc4)C3C2)cc1 (stereo not shown) [BRD7929]	0.72	0.46	0.99	0.98	0.41	0.40	–	-20	20	–	–	0.15	0.78	1.85
CC(=NOCCN)c1cccc(C(C)(C)NC(=O)Nc2ccc(Cl)c(C(F)(F)F)c2)c1 [P257]	0.84	1.06	0.97	0.68	0.65	9.88	–	4	16	–	–	34.3	–	–
c1ccc(CNc2nc(NC3CCCC3)nc3ccccc23)cc1 [B-5]	1.49	1.74	1.24	–	–	82.99	–	81	85	–	yes	7.22	–	–
Cc1cccc(-n2ncc3c(=O)[nH]c(-n4nc(C)cc4NC(=O)C4CC4)nc32)c1 [C-4]	0.48	0.49	0.48	–	–	9.11	–	19	-1.12	–	–	5.17	–	–
CC(C)c1c(C(=O)Nc2ccccc2)c(-c2ccccc2)c(-c2ccc(F)cc2)n1CC[C@@H](O)C[C@@H](O)CC(=O)O [Atorvastatin]	1.88	1.94	1.82	–	–	-38.43	–	-51	-26	2.18	–	–	–	–
Oc1c(CN2CCN(c3ccccc3F)CC2)cc(Br)c2cccnc12 [A-6]	0.79	0.65	0.93	–	–	-20.21	–	-18	-23	–	no	1.33	–	–
CCOc1ccc(Cl)c2c1B(O)OC2CN (stereo not shown) [AN6426]	0.93	1.07	1.05	0.86	0.75	-16.44	–	-18	-15	–	–	19.5	–	–
